Results reported in patent publication US11992011B2, “Compounds for controlling plant pathogens” (VIB VZW, priority 2017, dated 2024).

Assays:
[1] = test system: Arabidopsis thaliana seedlings; details: continuous exposure; Steenackers et al. 2016; cited from earlier work
[2] = test system: tobacco cell cultures (Nicotinium tabacum BY2); details: Schoch et al., 2002; cited from earlier work
Meloidogyne incognita = Meloidogyne incognita infection in tomato cv. Moneymaker (Example 7); assay type: in vivo
Description: Tomato seeds, cv. Moneymaker (Vreeken's Zaden, Dordrecht, the Netherlands) were sown on autoclaved potting soil coveed with polyethylene film and placed at 24° C. for eight days. Seedlings were then transferred to individual SAP-filled pots and placed in a growth chamber at 24° C. Plants were watered three times per week with 25 ml of quarter-strength Hoagland solution for the first two weeks and half-strength thereafter.
M. incognita was extracted from infected tomato plants (cv. Moneymaker) roots grown in potting soil at 24° C. Nematodes were collected, counted and inoculated using the same procedure described for M. graminicola above.
(§1) Unless otherwise mentioned, all chemicals for nematode experiments were applied as a foliar spray consisting of the target compound at a concentration of 300 μM together with 0.1% (v/v) Tween 20 surfactant (Calbiochem) in distilled water. Again unless otherwise mentioned, all treatments for the nematode experiments were carried out three times: one and eight days before pathogen inoculation and seven days after pathogen inoculation. In all cases, plants were sprayed until run-off with an atomizer.
Infection experiments with M. incognita were performed in the same manner as those with M. graminicola, except that plants were harvested 31 days after inoculation instead of 14 days. At this point, the plants were phenotyped by measuring the root length with a ruler and in some experiments by measuring leaf area using the EasyLeafArea software (Easlon and Bloom, 2014) and by determining shoot dry mass after 72 hours of drying in an oven at 70° C. Galls were stained and counted as described above.
Additionally, a possible dose response effect was investigated by applying PA at three concentrations: 100, 400 and 700 μM.

[3] = test system: Alternaria solani, Botrytis cinerea R16, Fusarium graminearum PH1 and Fusarium graminearum GFP; assay type: cell-based
[4] = test system: spring wheat (Triticum aestivum cv. Fielder); assay: Yield and fertility in pathogen-free spring wheat (Example 2); details: 300 μM foliar spray three times; vs. control
Description: For Example 2, the spring wheat cultivar Fielder was used. Seeds were obtained from plants grown in the greenhouse complex of the VIB (Zwijnaarde, Belgium). Seeds were sown directly in potting soil (four seeds to a pot, thinned to three plants per pot after emergence) and placed in a growth chamber at 21° C. with 16 hours per day of light. These plants were grown until harvest; they were sprayed three times with the compounds of the invention at a concentration of 300 μM using the protocol described in the chemicals section. Spraying took place 14 and 21 days after emergence and a final time at heading.
In all cases model assumptions were verified using diagnostic plots (residuals, QQ-plot, scale-location and residuals-leverage). Outliers were removed only if they were outliers both in the statistical sense and if there was a biological reason for removal (e.g. the plant was stunted or developed a secondary infection).
To determine the effects of C4H inhibition on yield and fertility, spring wheat (Triticum aestivum cv. Fielder) was grown in a pathogen-free growth chamber until maturity and treated with a control or C4H inhibitor-containing foliar spray at regular intervals. At harvest, the number of ears per plant, the seed mass, the size of the seeds and the germination ability of the freshly harvested seeds were measured. Seed size was measured using the stacking density of the seed as a proxy measure; if a given seed mass takes up a greater volume, then the individual seeds must be larger.

OsGNS5 = assay: qRT-PCR in rice roots, OsGNS5 (Example 20); assay type: in vivo, Oryza sativa; details: rice cv. Bomba root tissue; same samples as Example 19
Description: After quality control, qPCR was carried out.
To test whether other defense hormones might be involved, genes responsive to jasmonic acid (the biosynthesis gene OsAOS2) and auxin (the auxin conjugating enzyme OsGH3.1) were investigated. Moreover, the callose-degrading enzyme OsGNS5, downregulation of which is associated with basal defense, was also investigated. The qRT-PCR analysis was performed on the same samples used in the previous Example.

[5] = test system: J2 juveniles of Meloidogyne graminicola; assay: In vitro nematode toxicity assay, M. graminicola J2 (Example 11); details: Vertimec 0.02 v/v % abamectin
Description: J2 juveniles of Meloidogyne graminicola and Heterodera schachtii were isolated from Echinocloa cruss-galli roots and sugar beet roots respectively. Per treatment and species combination, 300 nematodes were isolated and divided over six wells that contained 1.5 ml of either sterilized tap water, a 100 μM C4H inhibitor solution or a 0.02 v/v % solution of the nematicide abamectin (Vertimec®, Syngenta AG). The nematodes were incubated in the dark on a slow-moving rotary shaker (50 rpm) and the number of living nematodes was counted regularly using a binocular microscope.
To rule out definitively that the compounds of the invention operate through direct toxicity to nematodes, an in vitro toxicity assay on J2 juveniles of the nematodes Meloidogyne graminicola and Heterodera schachtii was performed.
First, survival upon exposure to the C4H inhibitor piperonylic acid (PA) was compared to a negative control (tap water) and a positive control, the commercial nematicide Vertimec (0.02% Abamectin). A detailed survival curve is shown in FIG. 12a (M. graminicola) and FIG. 12b (H. schachtii).
In a second experiment, a broader range of C4H inhibitors were assayed in the same manner. The toxicity of piperonylic acid (PA), piperine (PIP), 4-propynyloxybenzoic acid (4PB), and 3-(4-pyridyl)acrylic acid (3PA) to J2 juveniles of Meloidogyne graminicola was compared to a negative control (tap water) and a true nematicide (Vertimec, active ingredient abamectin).

Meloidogyne graminicola = Meloidogyne graminicola infection in rice cv. Kitaake, additional C4H inhibitors (Example 6); assay type: in vivo; details: foliar spray, N=8
Description: as §1
Infection experiments with M. graminicola were performed by inoculating host plants 14 days after transfer to SAP by introducing the desired amount of J2 juveniles next to the root system using a micro pipette. Rice plants (cv. Nipponbare or Kitaake) were inoculated with 250 J2 juveniles per plant; wheat plants (cv. Sahara) were inoculated with 600 J2 juveniles per plant. Plants were harvested 14 days after inoculation. At this point, the plants were phenotyped by measuring the shoot and root length with a ruler, counting the number of adventitious roots and in some experiments by measuring leaf area using the EasyLeafArea software (Easlon and Bloom, 2014) and by determining shoot dry mass after 72 hours of drying in an oven at 70° C. Root systems were then stained in acid fuchsine as described in (Byrd et al., 1983) and left to destain in glycerol with 1 ml/l fuming HCl added for approximately ten days. The number of galls and nematodes was then counted using a binocular microscope.
Four different C4H inhibitors were used: piperonylic acid (PA), piperine (PIP), 4-propynyloxybenzoic acid (4PB) and 3-(4-pyridyl)acrylic acid (3PA).

SMILES | IC50 [1] | accumulation of salicylic acid [2] | negative effects on growth or development of the tomato plants (Meloidogyne incognita; 100, 400 and 700 μM foliar spray) | Percent difference of mean number of galls per root system, PA100 vs. PA400 (Meloidogyne incognita; tomato, 100 μM compared with 400 μM) | Percent difference of mean number of galls per root system, PA100 vs. PA700 (Meloidogyne incognita; tomato, 100 μM compared with 700 μM) | Percent difference of mean number of galls per root system, PA400 vs. PA700 (Meloidogyne incognita; tomato, 400 μM compared with 700 μM) | Percent difference of mean number of galls per root system, PA100 vs. CON (Meloidogyne incognita; tomato, foliar spray 100 μM) | Percent difference of mean number of galls per root system, PA400 vs. CON (Meloidogyne incognita; tomato, foliar spray 400 μM) | Percent difference of mean number of galls per root system, PA700 vs. CON (Meloidogyne incognita; tomato, foliar spray 700 μM) | germination of fungal spores on agar [3] | mycelium growth compared to control agar [3] | Total yield (seed mass) [4] | germination after fourteen days of freshly harvested seeds [4] | mean number of ears per plant [4] | seed size (stacking density) [4] | Fold change vs. control, OsGNS5 expression (OsGNS5) | survival after 24 hours of exposure ([5]; PA 100 μM, control 94.2±2.4) | survival at the end of the experiment ([5]; second experiment, C4H inhibitor 100 μM, water control 93%) | reduction in the number of galls compared to the control group (Meloidogyne graminicola)
O=C(O)/C=C/c1ccc2c(c1)OCO2 [MDCA, 3,4-methylenedioxycinnamic acid] | 5.07 µM | – | – | – | – | – | – | – | – | – | – | – | – | – | – | – | – | – | –
O=C(O)c1ccc2c(c1)OCO2 [PA, Piperonylic acid] | – | induces the accumulation of the defense hormone salicylic acid | no negative effects on growth or development | −9% | −2% | +11% | −54% | −50% | −55% | germinated normally | slight (species-specific) growth retardation | not significantly different | not significantly different | the same in all treatments | no effect | 0.41 | 97.1±1.8% | 95% | −40%
